Laboratory results reported in patent US20060281695A1, “Control of parasites in animals by N-[(phenyloxy)phenyl]-1,1,1-trifluoromethanesulfonamide and N-[(phenylsulfanyl)phenyl]-1,1,1-trifluoromethanesulfonamide derivatives” (priority 2005, published 2006).

Columns and labels:
[1] = system: cat flea (Ctenocephalides felis); assay: Ctenocephalides felis adulticide assay: single dose screen on treated glass surface (% mortality at 1.26 μg/cm^2, 24 hours); type: in vivo; settings: for mortality at 1.26 µg/cm2, 1.26 µg/cm2: Ctenocephalides felis, 24 h, read-out: Ctenocephalides felis Mortality (%) 24 h; for Ctenocephalides felis Mortality (%) 24 h: in vivo
[2] = system: cat flea (Ctenocephalides felis); assay: Ctenocephalides felis adulticide assay: dose response on treated glass surface (LC50, 24 hours); type: in vivo; settings: adult cat fleas, 24 h mortality, probit analysis
Protocol: The LC50 value is the concentration, expressed as μg/cm^2, that was required to kill 50% of the sample of cat fleas on contact with the tested compound. Certain tests are also reported as the percent of a sample of cat fleas that were killed at a concentration of 1.26 μg/cm^2 (“% mortality”), for the compounds tested in this way.
c) Ctenocephalides felis Adulticide Assay: C. felis dose response The purpose of this example is to determine the LC50 when cat fleas are contacted with a glass surface treated with sample compounds or formulations prepared as described above. Mortality of fleas is defined as follows: fleas are considered dead if they don't move or are on their sides and unable to walk or right themselves. LC50: Lethal Concentration 50— concentration of glass surface treatment at which 50% of the cat fleas are killed.
The test species employed was the cat flea (Ctenocephalides felis). The strain used was obtained from external suppliers as pupae and held in the laboratory under testing conditions until the adults had emerged. Fifteen (15) fleas were used in a minimum of four replicates for each dose level (total of 60 fleas per dose level). The insects were selected to be in the adult life stage, aged between 3 and 7 days post emergence.
The compounds to be tested were dissolved in acetone just prior to testing. Samples of compounds were stored in a refrigerator (5±1° C.) unless otherwise specified. During the mortality testing, the temperature was maintained at 25±1° C. Humidity was maintained at 75±5%. The base (area=159 mm^2) of a 100 mL glass Erlenmeyer (conical) flask provided the treatment surface. Flasks were pre-treated with Coatasil™ glass treatment to maximise bio-availability of test compounds by preventing them from binding to the glass surface.
Six dose levels (concentrations) of test sample, in the form of a serial dilution, were derived from a pilot study and covered a range that produced very low to very high mortality. The base of the 100 mL Erlenmeyer flask was treated with 0.5 mL of test sample in acetone and gently swirled. This volume was sufficient to cover the base of the flask. Flasks were left to dry for 24 hours before flea exposure. Adult cat fleas were lightly anaesthetised by cooling and then placed into a sorting chamber, which allowed fleas to revive and jump into the Erlenmeyer flasks. Fifteen (15) adult cat fleas were collected in each flask. The top of the flasks were then covered in Parafilm™ and small holes made to allow gas exchange. A 0.5 mL volume of acetone was applied to the base of an Erlenmeyer flask and the testing proceeded in the same manner described above. Cat fleas in the treatment containers were held under testing conditions for 24 hours. Mortality resulting from the treatments was recorded at 24 hours. […] 3rd ed. Cambridge Univ. Press, London (1971)].
(§1) In Table 7, provided below, are listed the Haemonchus contortus LD99 values (measured in micrograms/mL), the Ctenocephalides felis rapid screening values (measured in % mortality), the Ctenocephalides felis LC50 values (measured in micrograms/cm^2) and the Rhipicephalus sanguineus rapid screening values (measured in % mortality) for selected compounds in accordance with the present invention.

[3] = system: Brown Dog Tick (Rhipicephalus sanguineus); assay: Topical application on brown dog ticks, single dose screen (% mortality at 24 hours); type: in vivo; settings: adult brown dog ticks, topical 1 μL in acetone on abdomen, single dose 10 μg per tick
Protocol: d) Topical Application On Brown Dog Ticks (Rhipicephalus sanguineus)
The aim of the test is to determine the presence of significant acaricidal activity in sample compounds or formulations when applied topically on brown dog ticks. A tick is defined as dead if it gives no apparent response when: (i) touched lightly and (ii) then observed for 1 minute. To assess the experimental compound for acaricidal activity, a single dose level is chosen based on known results from previous experiments with a commercially available active reference compound.
In the present example, both permethrin and fipronil were employed as reference compounds. The insect species tested was the Brown Dog Tick (Rhipicephalus sanguineus). Mixed sex adult ticks were used for tests. The strain used was cultured from a field strain and supplied as unfed adult ticks (mixed sex). Ticks were maintained in controlled conditions (temp. 18°±2° C., humidity 75±5% RH).
Test compounds (formulations or active ingredients) were stored in a refrigerator (5±1° C.) unless otherwise specified. The temperature was maintained at 25±1° C. and the humidity was ambient. The screening dose chosen was higher than that known kill 90% of insects (LD90) using the reference compound. In the case of topical application of active compounds on adult ticks, the reference compound was fipronil and the dose chosen was 10 μg of active per tick (=10 μg of fipronil/1 μl of acetone). Ticks were each treated on the abdomen with 1 μL of a single dose level of test sample in acetone; ten ticks were treated with solvent only (acetone) in each test. Tests were replicated 4 times (total of 40 ticks treated). Ticks were held in recovery containers maintained under appropriate rearing conditions for 24 hours. Mortality resulting from the treatments was recorded at 24 hours. Pooled 24 hour mortality data were converted to percentages.
as §1

[4] = system: Haemonchus contortus; assay: Haemonchus contortus larvacidal (larval development) assay, LD99; type: in vitro

Compound | mortality at 1.26 µg/cm2, 1.26 µg/cm2 [1] [%] | Ctenocephalides felis LC50 [2] [μg/cm^2] | Rhipicephalus sanguineus Mortality (%) 24 h [3] [%] | Haemonchus contortus LD99 [4] [µg/mL] | Ctenocephalides felis Mortality (%) 24 h [1] [%]
O=S(=O)(Nc1ccc(Cl)cc1Oc1ccc(Cl)cc1Cl)C(F)(F)F [Compound 1, N-[4-Chloro-2-(2,4-dichlorophenoxy)phenyl]-1,1,1-trifluoromethanesulfonamide] | 100 | 0.32 | 68 | 1.5 | –
O=S(=O)(Nc1ccc(Cl)cc1Oc1ccccc1C(F)(F)F)C(F)(F)F [Compound 2] | – | 0.19 | 28 | 5.5 | 100
O=S(=O)(Nc1ccc(Cl)cc1Sc1ccc(Cl)cc1)C(F)(F)F [Compound 12, N-[4-Chloro-2-((4-chlorophenyl)sulfanyl)phenyl]-1,1,1-trifluoromethanesulfonamide] | 100 | 0.15 | 50 | 2.8 | –
O=S(=O)(Nc1ccc(Cl)cc1Oc1ccccc1F)C(F)(F)F [Compound 14] | – | 0.05 | 98 | 13.0 | 100
